Laboratory results taken from PubChem BioAssay (NCI).
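Each compound was tested at five concentrations against cells in 96-well plates for 48 hours. GI50 = concentration required for 50% inhibition of growth. TGI marks complete inhibition of growth.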

Assays:
Experiment in all cases: inhibition of tumour cell growth, NCI panel, 48 h
[1] = tested on: LOX IMVI melanoma
[2] = tested on: NCI/ADR-RES ovarian
[3] = tested on: UO-31 renal
[4] = tested on: SK-MEL-5 melanoma
[5] = tested on: UACC-62 melanoma
[6] = tested on: HL-60(TB) leukemia
[7] = tested on: U251 CNS
[8] = tested on: NCI-H460 lung
[9] = tested on: MCF7 breast
[10] = tested on: SK-OV-3 ovarian

CC(=O)N1CCN(CCOc2ccc(C3CCN(C4=Nn5c(nnc5C(F)(F)F)CC4)CC3)cc2)CC1
GI50 [1]: 11.4 µM | TGI [1]: > 100 µM | GI50 [2]: 37 µM | TGI [2]: > 100 µM | GI50 [3]: 4.75 µM | TGI [3]: > 100 µM | GI50 [4]: 6.58 µM | TGI [4]: 30.8 µM | GI50 [5]: 2.84 µM | TGI [5]: > 100 µM | GI50 [6]: 4.41 µM | TGI [6]: 99.4 µM | GI50 [7]: 47.9 µM | TGI [7]: > 100 µM | GI50 [8]: 30.9 µM | TGI [8]: > 100 µM | GI50 [9]: 4.3 µM | TGI [9]: > 100 µM | GI50 [10]: 21.1 µM | TGI [10]: > 100 µM

C1CC[N-]CC1.CC(=N\O)/C(C)=N/O.CC(=N\O)/C(C)=N/O.[CH2-]CCN1CCOCC1.[Co+2]
GI50 [1]: > 100 µM | TGI [1]: > 100 µM | GI50 [2]: > 100 µM | TGI [2]: > 100 µM | GI50 [3]: > 100 µM | TGI [3]: > 100 µM | GI50 [4]: > 100 µM | TGI [4]: > 100 µM | GI50 [5]: > 100 µM | TGI [5]: > 100 µM | GI50 [6]: > 100 µM | TGI [6]: > 100 µM | GI50 [7]: > 100 µM | TGI [7]: > 100 µM | GI50 [8]: > 100 µM | TGI [8]: > 100 µM | GI50 [9]: > 100 µM | TGI [9]: > 100 µM | GI50 [10]: > 100 µM | TGI [10]: > 100 µM

COc1cc2c(cc1OC)-c1ncc3cc4c(cc3c1C2)OCO4
GI50 [1]: > 100 µM | TGI [1]: > 100 µM | GI50 [2]: 24.8 µM | TGI [2]: 49.6 µM | GI50 [3]: 23.1 µM | TGI [3]: 63.7 µM | GI50 [4]: 7.65 µM | TGI [4]: > 100 µM | GI50 [5]: > 100 µM | TGI [5]: > 100 µM | GI50 [6]: 10.3 µM | TGI [6]: 22 µM | GI50 [7]: 41.4 µM | TGI [7]: > 100 µM | GI50 [8]: 13 µM | TGI [8]: 30.5 µM | GI50 [9]: 12.4 µM | TGI [9]: 30.6 µM | GI50 [10]: 53 µM | TGI [10]: > 100 µM

COC(=O)[C@]12CC[C@@H](C)[C@H](C)[C@@H]1C1=CC[C@@H]3[C@@]4(C)CC(=O)[C@H](OC(=O)c5ccco5)[C@@]5(C)COC(=C45)C[C@@]3(C)[C@]1(C)CC2
GI50 [1]: 0.427 µM | TGI [1]: > 100 µM | GI50 [2]: 6.37 µM | TGI [2]: > 100 µM | GI50 [3]: 1.7 µM | TGI [3]: > 100 µM | GI50 [4]: 0.414 µM | TGI [4]: 2.54 µM | GI50 [6]: 0.46 µM | TGI [6]: > 100 µM | GI50 [7]: 0.703 µM | TGI [7]: > 100 µM | GI50 [8]: 0.568 µM | TGI [8]: > 100 µM | GI50 [9]: 0.741 µM | TGI [9]: > 100 µM | GI50 [10]: 4.67 µM | TGI [10]: > 100 µM

O=C(CCl)Nc1cc(O)c2c(c1)C(=O)c1cccc(O)c1C2=O
GI50 [1]: 0.166 µM | TGI [1]: 0.623 µM | GI50 [2]: 2.47 µM | TGI [2]: > 29.2 µM | GI50 [3]: 1.39 µM | TGI [3]: 2.71 µM | GI50 [4]: 0.549 µM | TGI [4]: 1.61 µM | GI50 [5]: 1.47 µM | TGI [5]: 3.84 µM | GI50 [6]: 2.44 µM | TGI [6]: 6.08 µM | GI50 [7]: 1.63 µM | TGI [7]: 3.18 µM | GI50 [8]: 1.79 µM | TGI [8]: 3.92 µM | GI50 [9]: 0.725 µM | TGI [9]: 2.61 µM | GI50 [10]: 2.61 µM | TGI [10]: 18.1 µM

O=C(Nc1ccc(I)cc1F)c1cc(I)ccc1O
GI50 [1]: 0.38 µM | TGI [1]: 1.67 µM | GI50 [2]: 0.791 µM | TGI [2]: 3.85 µM | GI50 [3]: 0.535 µM | TGI [3]: 2.22 µM | GI50 [4]: 0.285 µM | TGI [4]: 0.807 µM | GI50 [5]: 0.312 µM | TGI [5]: 1.22 µM | GI50 [6]: 0.517 µM | TGI [6]: 1.66 µM | GI50 [7]: 0.661 µM | TGI [7]: > 100 µM | GI50 [8]: 0.506 µM | TGI [8]: 22.4 µM | GI50 [9]: 1.55 µM | TGI [9]: 9.28 µM | GI50 [10]: 2.56 µM | TGI [10]: > 100 µM
